Test results taken from patent US20240317708A1, “INHIBITORS OF TRANSGLUTAMINASES” (ZEDIRA GMBH, priority 2021, published 2024).

Legend:
[1] = Log D shake flask method (octanol / PBS pH 7.4, HPLC); type: physicochemical; details: octanol/phosphate-buffered saline (PBS); octanol / PBS pH 7.4, shake flask
Procedure: In order to classify the inventive compounds according to their lipophilicity, Log D values (distribution coefficient) were determined by means of the well-established shake flask method, measuring the partition of a compound between an octanol and phosphate-buffered saline (PBS, pH 7.4) by HPLC.

[2] = molecular target: T1, recombinant human transglutaminase 2 (Homo sapiens, UniProt P21980); test: Transglutaminase assay (dansylcadaverine incorporation into dimethylcasein, DCC-assay); type: biochemical; details: recombinant human TG2 10 nM, dansylcadaverine/dimethylcasein, 37° C.
T1 construct: purchased Zedira T022
T1 sequence (P21980 1-687): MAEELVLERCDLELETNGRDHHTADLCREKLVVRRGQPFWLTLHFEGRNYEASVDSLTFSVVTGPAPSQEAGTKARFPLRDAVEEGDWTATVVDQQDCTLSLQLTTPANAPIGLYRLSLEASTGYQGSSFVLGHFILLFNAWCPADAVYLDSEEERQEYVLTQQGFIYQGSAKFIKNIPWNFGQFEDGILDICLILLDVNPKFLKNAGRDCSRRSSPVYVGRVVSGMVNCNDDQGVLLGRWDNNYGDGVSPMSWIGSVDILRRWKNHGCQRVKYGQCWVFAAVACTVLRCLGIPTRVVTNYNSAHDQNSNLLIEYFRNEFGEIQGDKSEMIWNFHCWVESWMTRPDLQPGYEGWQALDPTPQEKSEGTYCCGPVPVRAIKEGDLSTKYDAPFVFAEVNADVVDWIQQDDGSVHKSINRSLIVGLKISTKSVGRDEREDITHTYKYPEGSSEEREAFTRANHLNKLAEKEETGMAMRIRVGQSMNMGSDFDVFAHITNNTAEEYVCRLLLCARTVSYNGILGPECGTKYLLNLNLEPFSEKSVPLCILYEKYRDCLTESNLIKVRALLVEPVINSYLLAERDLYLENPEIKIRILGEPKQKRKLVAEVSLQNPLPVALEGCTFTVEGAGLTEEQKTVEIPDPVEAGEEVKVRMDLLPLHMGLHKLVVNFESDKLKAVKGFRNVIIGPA
In short: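 IC50 derived from fluorescence slope between 20 and 30 min (λex 330 nm, λem 500 nm, 37 °C), expressed relative to a 2% DMSO control. Reaction: 10 nM recombinant human TG2, 4 μM dimethylcasein, 16.7 μM dansylcadaverine, 10 mM CaCl2 and glutathione, pH 8.0.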

[3] = Caco-2 permeability assay (CacoReady kit); type: in vitro ADME; details: human
In short: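 Intestinal permeability modelled with kit-supplied Caco-2 barriers, run as the maker specifies; each compound reported as Papp.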

Structure (SMILES): Cc1c(C(=O)N[C@@H](CC/C=C/C(=O)N(C)C)C(=O)Nc2cccn(CC(=O)NC34CC5CC(C)(CC(C)(C5)C3)C4)c2=O)oc2ccccc12 [III-77, (S,E)-N^7-(1-(2-(3,5-dimethyladamantan-1-amino)-2-oxoethyl)-2-oxo-1,2-dihydropyridin-3-yl)-N^1,N^1-dimethyl-6-(3-methylbenzofuran-2-carboxamido)hept-2-enediamide]
- logD [1]: 3 to 5
- IC50 [2]: 25 to 250 nM
- Papp [3]: 1 to 10 ×10⁻⁶ cm/s

Structure (SMILES): COC(=O)/C=C/CC[C@H](NC(=O)c1cncc(C(=O)O)c1)C(=O)Nc1cccn(CC(=O)NC2C3CC4CC(C3)CC2C4)c1=O (stereo partly drawn) [III-35, (S,E)-5-(1-(1-(2-(2-adamantylamino)-2-oxoethyl)-2-oxo-1,2-dihydropyridin-3-ylamino)-7-methoxy-1,7-dioxohept-5-en-2-ylcarbamoyl)nicotinic acid]
- logD [1]: 3 to 5
- IC50 [2]: < 25 nM
- Papp [3]: < 1 ×10⁻⁶ cm/s

Structure (SMILES): COC(=O)/C=C/CC[C@H](NC(=O)c1cc2ccccc2s1)C(=O)Nc1cccn(CC(=O)NC2C3CC4CC(C3)CC2C4)c1=O (stereo partly drawn) [III-5, (S,E)-methyl 6-(benzo[b]thiophene-2-carboxamido)-7-(1-(2-(2-adamantylamino)-2-oxoethyl)-2-oxo-1,2-dihydropyridin-3-ylamino)-7-oxohept-2-enoate]
- logD [1]: 3 to 5
- IC50 [2]: < 25 nM
- Papp [3]: 1 to 10 ×10⁻⁶ cm/s

Structure (SMILES): C=CCNC(=O)/C=C/CC[C@H](NC(=O)c1ccc2cnccc2n1)C(=O)Nc1cccn(CC(=O)NC23CC(C2)C3)c1=O [III-150, (S,E)-N1-allyl-N7-(1-(2-(bicyclo[1.1.1]pentan-1-ylamino)-2-oxoethyl)-2-oxo-1,2-dihydropyridin-3-yl)-6-(1,6-naphthyridine-2-carboxamido)hept-2-enediamide]
- logD [1]: < 1
- IC50 [2]: 25 to 250 nM
- Papp [3]: < 1 ×10⁻⁶ cm/s

Structure (SMILES): COC(=O)/C=C/CC[C@H](NC(=O)c1oc2ccccc2c1C)C(=O)Nc1cccn(CC(=O)NC2C3CC4CC2CC(C)(C4)C3)c1=O (stereo partly drawn) [III-42, (S,E)-methyl 7-(1-(2-(5-methyladamantan-2-amino)-2-oxoethyl)-2-oxo-1,2-dihydropyridin-3-ylamino)-6-(3-methylbenzofuran-2-carboxamido)-7-oxohept-2-enoate]
- logD [1]: 3 to 5
- IC50 [2]: < 25 nM
- Papp [3]: 1 to 10 ×10⁻⁶ cm/s

Structure (SMILES): COC(=O)/C=C/CC[C@H](NC(=O)C1CCc2ccccc2C1)C(=O)Nc1cccn(CC(=O)NC2C3CC4CC2CC(C(=O)N(C)C)(C4)C3)c1=O (stereo partly drawn) [III-137, (6S,E)-methyl 7-(1-(2-(4-aminoadamantane-N,N-dimethyl-1-carboxamide)-2-oxoethyl)-2-oxo-1,2-dihydropyridin-3-ylamino)-7-oxo-6-(1,2,3,4-tetrahydronaphthalene-2-carboxamido)hept-2-enoate]
- logD [1]: 1 to 3
- IC50 [2]: 250 to 1500 nM
- Papp [3]: < 1 ×10⁻⁶ cm/s

Structure (SMILES): COC(=O)/C=C/CC[C@H](NC(=O)c1snnc1C)C(=O)Nc1cccn(CC(=O)N[C@@H]2C[C@H]3CC[C@@H]2C3)c1=O [III-110, (S,E)-methyl 7-(1-(2-((1R,2R,4S)-bicyclo[2.2.1]heptan-2-ylamino)-2-oxoethyl)-2-oxo-1,2-dihydropyridin-3-ylamino)-6-(4-methyl-1,2,3-thiadiazole-5-carboxamido)-7-oxohept-2-enoate]
- logD [1]: 1 to 3
- IC50 [2]: < 25 nM
- Papp [3]: < 1 ×10⁻⁶ cm/s

Structure (SMILES): COC(=O)/C=C/CC[C@H](NC(=O)c1nc(C2(C)CC2)no1)C(=O)Nc1cccn(CC(=O)NC2C3CC4CC2CC(C(N)=O)(C4)C3)c1=O (stereo partly drawn) [III-167, (S,E)-methyl 7-(1-(2-(4-aminoadamantane-1-carboxamide)-2-oxoethyl)-2-oxo-1,2-dihydropyridin-3-ylamino)-6-(3-(1-methylcyclopropyl)-1,2,4-oxadiazole-5-carboxamido)-7-oxohept-2-enoate]
- logD [1]: < 1
- IC50 [2]: 250 to 1500 nM
- Papp [3]: < 1 ×10⁻⁶ cm/s

Structure (SMILES): COC(=O)/C=C/CC[C@H](NC(=O)c1cncn1C)C(=O)Nc1cccn(CC23CC4CC(CC(C4)C2)C3)c1=O [III-78, (S,E)-methyl 7-(1-(1-adamantylmethyl)-2-oxo-1,2-dihydropyridin-3-ylamino)-6-(1-methyl-1H-imidazole-5-carboxamido)-7-oxohept-2-enoate]
- logD [1]: 3 to 5
- IC50 [2]: 250 to 1500 nM
- Papp [3]: < 1 ×10⁻⁶ cm/s

Structure (SMILES): COC(=O)/C=C/CC[C@H](NC(=O)c1oc2ccccc2c1C)C(=O)Nc1cccn(CC(=O)NC2(C#N)C3CC4CC(C3)CC2C4)c1=O (stereo partly drawn) [III-43, (S,E)-methyl 7-(1-(2-(2-carbonitrileadamantane-2-amino)-2-oxoethyl)-2-oxo-1,2-dihydropyridin-3-ylamino)-6-(3-methylbenzofuran-2-carboxamido)-7-oxohept-2-enoate]
- logD [1]: 3 to 5
- IC50 [2]: 25 to 250 nM
- Papp [3]: < 1 ×10⁻⁶ cm/s

Structure (SMILES): COC(=O)/C=C/CC[C@H](NC(=O)[C@@H]1CCCN1C(C)=O)C(=O)Nc1cccn(CC(=O)NC2C3CC4CC(C3)CC2C4)c1=O (stereo partly drawn) [III-21, (S,E)-methyl 6-((S)-1-acetylpyrrolidine-2-carboxamido)-7-(1-(2-(2-adamantylamino)-2-oxoethyl)-2-oxo-1,2-dihydropyridin-3-ylamino)-7-oxohept-2-enoate]
- logD [1]: 1 to 3
- IC50 [2]: < 25 nM
- Papp [3]: < 1 ×10⁻⁶ cm/s

Structure (SMILES): COC(=O)/C=C/CC[C@H](NC(=O)c1oc2ccccc2c1C)C(=O)Nc1cccn(CC(=O)NC23CC4CC(C2)C(F)(F)C(C4)C3)c1=O [III-55, (S,E)-methyl 7-(1-(2-(4,4-difluoroadamantan-1-amino)-2-oxoethyl)-2-oxo-1,2-dihydropyridin-3-ylamino)-6-(3-methylbenzofuran-2-carboxamido)-7-oxohept-2-enoate]
- logD [1]: 3 to 5
- IC50 [2]: 25 to 250 nM
- Papp [3]: 1 to 10 ×10⁻⁶ cm/s

Structure (SMILES): COC(=O)/C=C/CC[C@H](NC(=O)c1snnc1C)C(=O)Nc1cccn(CC(=O)NC23CC4(C)CC(C)(CC(C)(C4)C2)C3)c1=O [III-108, (S,E)-methyl 7-(1-(2-(3,5,7-trimethyl-1-adamantylamino)-2-oxoethyl)-2-oxo-1,2-dihydropyridin-3-ylamino)-6-(4-methyl-1,2,3-thiadiazole-5-carboxamido)-7-oxohept-2-enoate]
- logD [1]: 3 to 5
- IC50 [2]: < 25 nM
- Papp [3]: < 1 ×10⁻⁶ cm/s

Structure (SMILES): COC(=O)/C=C/CC[C@H](NC(=O)c1cc2cccc(F)c2s1)C(=O)Nc1cccn(CC(=O)NC2C3CC4CC(C3)CC2C4)c1=O (stereo partly drawn) [III-7, (S,E)-methyl 6-(7-fluorobenzo[b]thiophene-2-carboxamido)-7-(1-(2-(2-adamantylamino)-2-oxoethyl)-2-oxo-1,2-dihydropyridin-3-ylamino)-7-oxohept-2-enoate]
- logD [1]: 3 to 5
- IC50 [2]: < 25 nM
- Papp [3]: 1 to 10 ×10⁻⁶ cm/s

Structure (SMILES): COC(=O)/C=C/CC[C@H](NC(=O)c1snnc1C)C(=O)Nc1cccn(CC(=O)NC23CC4CC(C)(CC(C)(C4)C2)C3)c1=O [III-112, (S,E)-methyl 7-(1-(2-(3,5-dimethyladamantane-1-amino)-2-oxoethyl)-2-oxo-1,2-dihydropyridin-3-ylamino)-6-(4-methyl-1,2,3-thiadiazole-5-carboxamido)-7-oxohept-2-enoate]
- logD [1]: 1 to 3
- IC50 [2]: < 25 nM
- Papp [3]: < 1 ×10⁻⁶ cm/s

Structure (SMILES): COC(=O)/C=C/CC[C@H](NC(=O)c1snnc1C=O)C(=O)Nc1cccn(CC(=O)NC2(C(=O)O)C3CC4CC2CC(C(F)(F)F)(C4)C3)c1=O (stereo partly drawn) [III-174, (S,E)-methyl 6-(4-formyl-1,2,3-thiadiazole-5-carboxamido)-7-(1-(2-(2-carboxy-2-amino-5-(trifluoromethyl)adamantane)-2-oxoethyl)-2-oxo-1,2-dihydropyridin-3-ylamino)-7-oxohept-2-enoate]
- logD [1]: 1 to 3
- IC50 [2]: 250 to 1500 nM
- Papp [3]: < 1 ×10⁻⁶ cm/s

Structure (SMILES): COC(=O)/C=C/CC[C@H](NC(=O)c1ccn(C)n1)C(=O)Nc1cccn(CC(=O)NC2C3CC4CC(C3)CC2C4)c1=O (stereo partly drawn) [III-129, (S,E)-methyl 7-(1-(2-(2-adamantylamino)-2-oxoethyl)-2-oxo-1,2-dihydropyridin-3-ylamino)-6-(1-methyl-1H-pyrazole-3-carboxamido)-7-oxohept-2-enoate]
- logD [1]: 1 to 3
- IC50 [2]: 25 to 250 nM
- Papp [3]: < 1 ×10⁻⁶ cm/s

Structure (SMILES): COC(=O)/C=C/CC[C@H](NC(=O)c1nn[nH]n1)C(=O)Nc1cccn(CC(=O)NC2C3CC4CC(C3)CC2C4)c1=O (stereo partly drawn) [III-23, (S,E)-methyl 7-(1-(2-(2-adamantylamino)-2-oxoethyl)-2-oxo-1,2-dihydropyridin-3-ylamino)-7-oxo-6-(2H-tetrazole-5-carboxamido)hept-2-enoate]
- logD [1]: 1 to 3
- IC50 [2]: 25 to 250 nM
- Papp [3]: 1 to 10 ×10⁻⁶ cm/s
